# Assay results taken from patent US5317086A, “Cysteine proteinase inhibitors and inhibitor precursors” (The Regents of the University of California, priority 1992, dated 1994).
# Non-standard residues stand in square brackets, D forms with d. Residues, ends and D or L forms follow the SMILES beside them. ξ: configuration not given here. *: point of attachment. MeOSuc = COC(=O)CCC(=O)*; ξF = NC(Cc1ccccc1)C(=O)O
# Target: T1, papain (Carica papaya, UniProt P00784)
# T1 construct: purchased Sigma
# T1 sequence (P00784 134-345): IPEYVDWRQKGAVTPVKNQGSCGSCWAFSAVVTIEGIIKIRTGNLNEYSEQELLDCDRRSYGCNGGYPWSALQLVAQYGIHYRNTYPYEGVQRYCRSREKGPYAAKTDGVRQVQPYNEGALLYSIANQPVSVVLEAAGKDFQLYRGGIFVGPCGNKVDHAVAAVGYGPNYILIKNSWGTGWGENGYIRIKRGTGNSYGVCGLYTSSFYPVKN
# Assay: Irreversible inhibition of papain (preincubation and 3000-fold dilution assay)
# Type: biochemical
# Settings: control; 0.020 μM (666Ki) incubated with papain, diluted to (0.2 Ki); over 2.5 hr
# Protocol: Papain (Sigma, 2x recrystallized) (1 mg/mL) was activated at 25° C. for 30 min prior to use in a solution of 0.1mM EDTA, 0.5 mM L-cysteine hydrochloride, and 0.06 mM mercaptoethanol, and was then diluted (20 μL to 1.0 mL) and stored at 4° C. for use in the assays. The cysteine and mercaptoethanol buffers were prepared fresh daily. The standard assay conditions consisted of 50 mM phosphate, 0.2 M NaCl, 5 mM EDTA, 2 mM dithiothreitol (DTT), 0.2% bovine serum albumin (BSA) and 20% CH3 CN, pH 6.5. However, these concentrations were obtained by dilution of a buffer of 100 mM phosphate, 0.4 M NaCl, 10 mM EDTA, 4 mM DTT at pH 6.5 to a final volume of 1 mL with the necessary amounts of CH3 CN and H2 O. The DTT and BSA were added fresh daily to the phosphate buffer. Kinetic measurements were performed by monitoring the fluorescence of 7-amino-4-methylcoumarin (MCA) [1 (excitation) 350 nm, 1 (emission) 460 nm] released upon hydrolysis of the substrate, CbzPheArgMCA. […] The Km was determined in duplicate runs by fitting rate vs. [S] using the program ENZFITTER. […]
# The incomplete deactivation can be attributed to the increasing amounts of aldehyde present over time, which as a reversible inhibitor protects papain against alkylation. The dilution assay also provided evidence that the inhibition measured in the reversible assay was not due to trace amounts of aldehyde contamination. […]
smiles,measurement,value
COC(=O)CCC(=O)NC(Cc1ccccc1)C(=O)NCC=O (stereo not shown) [MeOSucPheGlyCHO] (MeOSuc-[ξF]-Gly-aldehyde),loss of papain activity,8%
